Data published in patent US6063812A, “Fumagillol derivatives and processes for preparing the same” (Chong Kun Dang Corporation, priority 1998, dated 2000).
In brackets after ≈: the same amount, converted by molar mass. Where two headings read alike, the source gives them in different places.

What was measured:
[1] = tested on: CPAE (Calf Pulmonary Artery Endothelial) cells; assay: Inhibiting activity on angiogenesis in vitro: CPAE cells, SRB method; type: cell-based; details: Bos taurus, Endothelial cell, 96 h, 4 days, 10% FBS + ECGS
Experimental: (§1) The compound sample dissolved in DMSO was diluted to ten times by using MEM culture medium (in case of CPAE cells) without adding FBS (Fetal Bovine Serum), and RPMI 1640 culture (in case of EL-4 and P388D1 cells), and 20 μl of the solution was poured to each well of 96 well plate in triplicate for every concentration gradient. Then, each cell suspension was prepared and poured to examine the inhibiting activity on angiogenesis.
In case of CPAE (Calf Pulmonary Artery Endothelial) cells (used after 2-3 subcultures), a cell suspension having 7×10^3 cells/ml was prepared with MEM (+10% FBS+50 μg/ml ECGS) medium, and after pouring the suspension (180 μl) to each well of 96 well plate, they were cultured in a CO2 incubator (5% CO2, humidified) for 4 days.

[2] = tested on: EL-4 (Lymphoma, murine) cells; assay: Inhibiting activity on angiogenesis in vitro: EL-4 cells, MTT method; type: cell-based; details: Mus musculus, EL4, 72 h, read-out: IC50, EL-4
Experimental: as §1
In case of EL-4 (Lymphoma, murine) and P388D1 (leukemia, mouse) cells, a cell suspension having 1×10^4 cells/ml was prepared with RPMI1640 (+10% FBS) culture medium, and after pouring the suspension (180 μl) to each well of 96 well plate, they were cultured in a CO2 incubator (5% CO2, humidified) for 3 days.

[3] = EL-4 cells, 3 days, MTT method, 10% FBS

Compound	IC50 [2, 3] [ng/mL]	IC50 [1] [ng/mL]	IC50 [2] [ng/mL]
COc1cc(/C=C/C(=O)O[C@@H]2CC[C@]3(CO3)[C@@H]([C@@]3(C)O[C@@H]3CC=C(C)C)[C@@H]2OC)cc(OC)c1OC [Example 3, O-(3,4,5-trimethoxycinnamoyl)fumagillol]	–	–	1.1e-05 (≈ 2.19e-05 nM)
COc1cc(/C=C/C(=O)O[C@@H]2CC[C@](O)(CCl)[C@@H]([C@@]3(C)O[C@@H]3CC=C(C)C)[C@@H]2OC)cc(OC)c1OC [Example 5, 4-(3,4,5-trimethoxycinnamoyl)oxy-2-(1,2-epoxy-1,5-dimethyl-4-hexenyl)-3-methoxy-1-chloromethyl-1-cyclohexanol]	1.1e-05 (≈ 2.04e-05 nM)	4.8e-05	–
CO[C@@H]1[C@H](OC(=O)/C=C/c2ccc([N+](=O)[O-])cc2)CC[C@]2(CO2)[C@H]1[C@@]1(C)O[C@@H]1CC=C(C)C [Example 7, O-(4-nitrocinnamoyl)fumagillol]	0.054 (≈ 0.118 nM)	0.012	–
CO[C@@H]1[C@H](OC(=O)/C=C/c2ccc(OC(C)=O)cc2)CC[C@]2(CO2)[C@H]1[C@@]1(C)O[C@@H]1CC=C(C)C [Example 9, O-(4-acetoxycinnamoyl)fumagillol]	0.0066 (≈ 0.014 nM)	0.0044	–
COc1cc(/C=C/C(=O)O[C@@H]2CC[C@]3(CO3)[C@@H]([C@@]3(C)O[C@@H]3CC=C(C)C)[C@@H]2OC)cc(OC)c1OC(C)=O [Example 11, O-(4-acetoxy-3,5-dimethoxycinnamoyl)fumagillol]	0.00032 (≈ 0.000603 nM)	0.00021	–
COc1cc(/C=C/CO[C@@H]2CC[C@]3(CO3)[C@@H]([C@@]3(C)O[C@@H]3CC=C(C)C)[C@@H]2OC)cc(OC)c1OC [Example 17, O-(3,4,5-trimethoxycinnamyl)fumagillol]	0.0015 (≈ 0.00307 nM)	0.0012	–
COc1cc(N)c(/C=C/C(=O)O[C@@H]2CC[C@]3(CO3)[C@@H]([C@@]3(C)O[C@@H]3CC=C(C)C)[C@@H]2OC)cc1OC [Example 21, O-(3,4-dimethoxy-6-aminocinnamoyl)fumagillol]	0.00082 (≈ 0.00168 nM)	0.00083	–
CO[C@@H]1[C@H](OC(=O)/C=C/C=C/C=C/C=C/C(=O)O)CC[C@]2(CO2)[C@H]1[C@@]1(C)O[C@@H]1CC=C(C)C [Fumagillin, fumagillin, reference compound]	–	–	1.6 (≈ 3.49 nM)

Continued, in another order:

IC50 [2, 3] [ng/mL]	Compound	IC50 [1] [ng/mL]	IC50 [2] [ng/mL]
0.0022 (≈ 0.00497 nM)	COc1ccc(/C=C/C(=O)O[C@@H]2CC[C@]3(CO3)[C@@H]([C@@]3(C)O[C@@H]3CC=C(C)C)[C@@H]2OC)cc1 [Example 2, O-(4-methoxycinnamoyl)fumagillol]	0.0017	–
0.84 (≈ 1.88 nM)	CO[C@@H]1[C@H](OC(=O)/C=C/c2ccc(Cl)cc2)CC[C@]2(CO2)[C@H]1[C@@]1(C)O[C@@H]1CC=C(C)C [Example 4, O-(chlorocinnamoyl)fumagillol]	0.99	–
0.00069 (≈ 0.00141 nM)	COc1cc(/C=C/C(=O)O[C@@H]2CC[C@]3(CO3)[C@@H]([C@@]3(C)O[C@@H]3CC=C(C)C)[C@@H]2OC)cc(OC)c1O [Example 12, O-(3,5-dimethoxy-4-hydroxycinnamoyl)fumagillol]	0.00073	–
0.0016 (≈ 0.00334 nM)	COc1ccc(/C=C/C(=O)O[C@@H]2CC[C@](O)(CCl)[C@@H]([C@@]3(C)O[C@@H]3CC=C(C)C)[C@@H]2OC)cc1 [Example 13, 4-(4-methoxycinnamoyl)oxy-2-(1,2-epoxy-1,5-dimethyl-4-hexenyl)-3-methoxy-1-chloromethyl-1-cyclohexanol]	0.0011	–
0.00049 (≈ 0.00108 nM)	CO[C@@H]1[C@H](OC(=O)/C=C/c2ccc(N(C)C)cc2)CC[C@]2(CO2)[C@H]1[C@@]1(C)O[C@@H]1CC=C(C)C [Example 14, O-(4-dimethylaminocinnamoyl)fumagillol]	0.00063	–
0.0043 (≈ 0.0101 nM)	CO[C@@H]1[C@H](OC(=O)/C=C/c2ccc(N)cc2)CC[C@]2(CO2)[C@H]1[C@@]1(C)O[C@@H]1CC=C(C)C [Example 15, O-(4-aminocinnamoyl)fumagillol]	0.0025	–
0.00041 (≈ 0.000821 nM)	CO[C@@H]1[C@H](OC(=O)/C=C/c2ccc(OCCN(C)C)cc2)CC[C@]2(CO2)[C@H]1[C@@]1(C)O[C@@H]1CC=C(C)C [Example 18, O-(4-dimethylaminoethoxycinnamoyl)fumagillol]	0.00052	–
0.00057 (≈ 0.00114 nM)	COc1ccc(/C=C/C(=O)O[C@@H]2CC[C@]3(CO3)[C@@H]([C@@]3(C)O[C@@H]3CC=C(C)C)[C@@H]2OC)cc1CN(C)C [Example 19, O-(3-dimethylaminomethyl-4-methoxycinnamoyl)fumagillol]	0.00032	–
0.00022 (≈ 0.000482 nM)	CO[C@@H]1[C@H](OC(=O)/C=C/c2ccc3c(c2)OCO3)CC[C@]2(CO2)[C@H]1[C@@]1(C)O[C@@H]1CC=C(C)C [Example 20, O-(3,4-methylenedioxycinnamoyl)fumagillol]	0.00012	–
0.00041 (≈ 0.000833 nM)	CO[C@@H]1[C@H](OC(=O)/C=C/c2ccc(N(C)C)cc2)CC[C@](O)(CCl)[C@H]1[C@@]1(C)O[C@@H]1CC=C(C)C [Example 25, 4-(4-dimethylaminocinnamoyl)oxy-2-(1,2-epoxy-1,5-dimethyl-4-hexenyl)-3-methoxy-1-chloromethyl-1-cyclohexanol]	0.00033	–
